Source: PubChem BioAssay (NCI)
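Dose response: 5 concentrations. Exposure: 48 h. Format: 96-well plates. Endpoint: linear interpolation; highest concentration if not reached. GI50 is the concentration that inhibits growth by half. TGI: concentration producing complete growth inhibition.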

Experiments:
Test in all cases: inhibition of tumour cell growth, NCI panel, 48 h
[1] = tested on: 786-0 renal
[2] = tested on: A498 renal
[3] = tested on: A549 NSCLC
[4] = tested on: ACHN renal
[5] = tested on: BT-549 breast
[6] = tested on: CAKI-1 renal
[7] = tested on: CCRF-CEM leukemia
[8] = tested on: COLO 205 colon
[9] = tested on: DU-145 prostate
[10] = tested on: EKVX NSCLC
[11] = tested on: HCC-2998 colon
[12] = tested on: HCT-116 colon
[13] = tested on: HCT-15 colon
[14] = tested on: HL-60(TB) leukemia
[15] = tested on: HOP-62 NSCLC
[16] = tested on: HOP-92 NSCLC
[17] = tested on: HS 578T breast
[18] = tested on: HT29 colon
[19] = tested on: IGROV1 ovarian
[20] = tested on: K-562 leukemia
[21] = tested on: KM12 colon
[22] = tested on: LOX IMVI melanoma
[23] = tested on: M14 melanoma
[24] = tested on: MALME-3M melanoma
[25] = tested on: MCF7 breast
[26] = tested on: MDA-MB-231 breast
[27] = tested on: MDA-MB-435
[28] = tested on: MOLT-4 leukemia
[29] = tested on: NCI-H226 lung
[30] = tested on: NCI-H23 lung
[31] = tested on: NCI-H460 lung
[32] = tested on: NCI-H522 lung
[33] = tested on: NCI/ADR-RES ovarian
[34] = tested on: OVCAR-4 ovarian
[35] = tested on: OVCAR-5 ovarian
[36] = tested on: OVCAR-8 ovarian
[37] = tested on: PC-3 prostate
[38] = tested on: RPMI-8226 leukemia
[39] = tested on: RXF 393 renal
[40] = tested on: SF-268 CNS
[41] = tested on: SF-295 CNS
[42] = tested on: SF-539 CNS
[43] = tested on: SK-MEL-2 melanoma
[44] = tested on: SK-MEL-28 melanoma
[45] = tested on: SK-MEL-5 melanoma
[46] = tested on: SK-OV-3 ovarian
[47] = tested on: SN12C renal
[48] = tested on: SNB-19 CNS
[49] = tested on: SNB-75 CNS
[50] = tested on: SR leukemia
[51] = tested on: SW-620 colon
[52] = tested on: T-47D breast
[53] = tested on: TK-10 renal
[54] = tested on: U251 CNS
[55] = tested on: UACC-257 melanoma
[56] = tested on: UACC-62 melanoma
[57] = tested on: UO-31 renal

Cc1ncc(NC(=O)c2ccc(CN3CCN(C)CC3)c(C(F)(F)F)c2)cc1Nc1nccc(-c2cccnc2)n1
GI50 [1]: 15.9 µM
TGI [1]: 29.7 µM
GI50 [2]: 20.1 µM
TGI [2]: 34.9 µM
GI50 [3]: 16.4 µM
TGI [3]: 31.5 µM
GI50 [4]: 14.2 µM
TGI [4]: 27.3 µM
GI50 [5]: 18.1 µM
TGI [5]: 32.7 µM
GI50 [6]: 13.7 µM
TGI [6]: 26.7 µM
GI50 [7]: 14.4 µM
TGI [7]: 91.9 µM
GI50 [8]: 5.55 µM
TGI [8]: 21.6 µM
GI50 [9]: 16.7 µM
TGI [9]: 30.4 µM
GI50 [10]: 17.4 µM
TGI [10]: 31.4 µM
GI50 [11]: 13.4 µM
TGI [11]: 26.6 µM
GI50 [12]: 7.92 µM
TGI [12]: 21.7 µM
GI50 [13]: 13.6 µM
TGI [13]: 29.7 µM
GI50 [14]: 8.57 µM
TGI [14]: 32.3 µM
GI50 [15]: 15.7 µM
TGI [15]: 30.5 µM
GI50 [16]: 4.5 µM
TGI [16]: 21 µM
GI50 [17]: 17.7 µM
TGI [17]: 45.7 µM
GI50 [18]: 2810 nM
TGI [18]: 21.8 µM
GI50 [19]: 10.7 µM
TGI [19]: 24.4 µM
TGI [20]: > 100 µM
GI50 [21]: 15.3 µM
TGI [21]: 30.2 µM
GI50 [22]: 1640 nM
TGI [22]: 3.18 µM
GI50 [23]: 10.2 µM
TGI [23]: 22.7 µM
GI50 [24]: 582 nM
TGI [24]: 14.4 µM
GI50 [25]: 13.8 µM
TGI [25]: 28.7 µM
GI50 [26]: 12.5 µM
TGI [26]: 27.3 µM
GI50 [27]: 12 µM
TGI [27]: 24.4 µM
GI50 [28]: 14.9 µM
TGI [28]: 49.6 µM
GI50 [29]: 19.5 µM
TGI [29]: 39.7 µM
GI50 [30]: 14.2 µM
TGI [30]: 28.3 µM
GI50 [31]: 17.4 µM
TGI [31]: 33 µM
GI50 [32]: 17.2 µM
TGI [32]: 33.8 µM
GI50 [33]: 17.8 µM
TGI [33]: 34.8 µM
GI50 [34]: 15.5 µM
TGI [34]: 29.4 µM
GI50 [35]: 15.8 µM
TGI [35]: 29.7 µM
GI50 [36]: 16.8 µM
TGI [36]: 31.6 µM
GI50 [37]: 16.9 µM
TGI [37]: 32.9 µM
GI50 [38]: 10 µM
TGI [38]: 49.7 µM
GI50 [39]: 11.1 µM
TGI [39]: 23.8 µM
GI50 [40]: 17.4 µM
TGI [40]: 33.7 µM
GI50 [41]: 16.2 µM
TGI [41]: 30 µM
GI50 [42]: 11.8 µM
TGI [42]: 24.4 µM
GI50 [43]: 14.7 µM
TGI [43]: 29.4 µM
GI50 [44]: 12.7 µM
TGI [44]: 25.4 µM
GI50 [45]: 16.3 µM
TGI [45]: 30.2 µM
GI50 [46]: 19.3 µM
TGI [46]: 34.2 µM
GI50 [47]: 14.4 µM
TGI [47]: 28.9 µM
GI50 [48]: 18 µM
TGI [48]: 32.1 µM
GI50 [49]: 15.2 µM
TGI [49]: 28.8 µM
GI50 [50]: 2900 nM
TGI [50]: 47.8 µM
GI50 [51]: 13.5 µM
TGI [51]: 30.4 µM
GI50 [52]: 17.9 µM
TGI [52]: 37.5 µM
GI50 [53]: 21.6 µM
TGI [53]: 39.1 µM
GI50 [54]: 15.9 µM
TGI [54]: 29.9 µM
GI50 [55]: 14.4 µM
TGI [55]: 27.9 µM
GI50 [56]: 13.2 µM
TGI [56]: 26.2 µM
GI50 [57]: 11.7 µM
TGI [57]: 24 µM
